Here are results for four compounds from PubChem BioAssay AID1963870 (Molecular Pharmacology Branch, DTP, NCI, 2024).

Structures are written as SMILES. Where only a bound is given, the exact number is not on record here.

The subject of this experiment is 292921-168-R-J2-PDC KRAS tumor spheroid viability. Nature of the experiment: Anticancer human tumor 292921-168-R-J2-PDC patient-derived pancreatic carcinoma cell line growth inhibition [KRAS2]. As to conditions: spheroids with HUVEC and MSC; for viability, T/C: stronger effect = lower value. The source says:
Multicellular complex tumor spheroid response to RAS pathway inhibitors in combination with a targeted agents in patient-derived cell lines with oncogenic KRAS variants from multiple cancer types
A high-throughput screen of multi-cell type tumor spheroids was designed to identify active combinations of targeted small molecules and KRAS pathway inhibitors. Complex spheroids include a stromal component modeled by human endothelial cells (HUVEC) and fibroblasts modeled by human mesenchymal stem cells (MSCs). The concentration ranges selected for each drug and investigational agent were based upon clinically achievable concentrations if the clinical Cmax of the agent was known.
Compounds. The drugs and investigational agents: BI-3406 (NSC825286), BAY-293 (NSC824723), batoprotafib (TNO155; NSC825523), sotorasib (AMG 510; NSC818433), MRTX1257 (NSC819558), elimusertib (BAY 1895344; NSC800525), molibresib (GSK525762; NSC774829), temuterkib (LY3214996; NSC803410), venetoclax (NSC766270), alisertib (NSC759677), olaparib (NSC753686), talazoparib (NSC767125), erdafitinib (NSC781556), ipatasertib (NSC767898), cabozantinib (NSC761068), nintedanib (NSC756659), abemaciclib (NSC768073), docetaxel (NSC628503), trametinib (NSC758246), and sapanisertib (NSC764658) were obtained from the National Cancer Institute (NCI) Developmental Therapeutics Program Chemical Repository. The FDA-approved anticancer drug set is available from the Developmental Therapeutics Program. […] The stock solutions were prepared in dimethyl sulfoxide (DMSO, Sigma-Aldrich, St. Louis, MO, cat. D2650) at 800-fold the tested concentration and stored at -70 degrees C prior to their use. All drugs and investigational agents were tested over a range starting from a high concentration at or near the clinical Cmax and decreasing in half-log increments. If the clinical Cmax for an agent had not been determined, the highest concentration tested was 10 microM.
Cell Culture. All cells were maintained in an incubator at 37 degrees C and 5% CO2 with 95% humidity. The PDC lines were cultured according to standard operating procedures established by the NCI PDMR (https://pdmr.cancer.gov/sops/default.htm). Briefly, all PDCs were thawed and cultured in Matrigel-coated flasks prepared with a working solution of 1X Ham's F-12 nutrient mix, without supplementation (Invitrogen, Waltham, MA, cat. 11765054), 100 U/mL penicillin-streptomycin (Invitrogen, cat. 15140122), and 2.5% Matrigel (Corning Inc., Corning, NY, cat. 354248) for the first three passages. All PDCs were cultured in complete DMEM/F-12 media containing advanced DMEM/F-12 (Invitrogen, cat. 12634028), 4.9% defined fetal bovine serum, heat inactivated (HyClone Laboratories Inc., Logan, UT, cat. SH30070.03HI), 389 ng/mL hydrocortisone (Sigma-Aldrich, cat. H4001), 9.7 ng/mL human EGF recombinant protein (Invitrogen, cat. PHG0313), 23.4 microg/mL adenine (Sigma-Aldrich, cat. A2786), 97.3 U/mL penicillin-streptomycin (Invitrogen, cat. 15140122), 1.9 mM L-glutamine (Invitrogen, cat. 25030081), and 9.7 microM Y-27632 dihydrochloride (Tocris Bioscience, Bristol, United Kingdom, cat. 1254). The PDCs were cultured in complete DMEM/F12 media without 9.7 microM Y-27632 dihydrochloride for at least two passages prior to the screen. The established cell line HOP-62 was cultured in RPMI 1640 medium, HEPES (Invitrogen, cat. 22400105) with 10% defined fetal bovine serum (HyClone Laboratories Inc., cat. SH30070.03) and 2 mM L-glutamine (Invitrogen, cat. 25030081). The pooled donor HUVEC were cultured in endothelial cell growth medium 2 (PromoCell, Heidelberg, Germany, cat. C-22011) and the hMSC were cultured in mesenchymal stem cell growth medium 2 (PromoCell, cat. C-28009). For all experiments, HUVEC and hMSC were used at passages </=5, while the malignant cell lines were used at passages </=15. […]

The mark [1] stands for this setting: curve of first compound, second compound 0.1 µM.
The mark [2] stands for this setting: curve of first compound, second compound 0.316 µM.
The mark [3] stands for this setting: curve of first compound, second compound 1 µM.
Setting [4] is: curve of first compound, second compound 3.16 µM.
[5] abbreviates: curve of first compound, second compound 10 µM.
The mark [6] stands for this setting: second compound 0.1 µM, first compound 0.0316 µM.
Where [7] appears, read: second compound 0.1 µM, first compound 0.1 µM.
Setting [8] is: second compound 0.1 µM, first compound 0.316 µM.
Setting [9] is: second compound 0.1 µM, first compound 1 µM.
Setting [10] is: second compound 0.1 µM, first compound 3.16 µM.
Where [11] appears, read: second compound 0.1 µM, first compound 10 µM.
The mark [12] stands for this setting: second compound 0.316 µM, first compound 0.0316 µM.
Where [13] appears, read: second compound 0.316 µM, first compound 0.1 µM.
Setting [14] is: second compound 0.316 µM, first compound 0.316 µM.
Where [15] appears, read: second compound 0.316 µM, first compound 1 µM.
Where [16] appears, read: second compound 0.316 µM, first compound 3.16 µM.
[17] abbreviates: second compound 0.316 µM, first compound 10 µM.
The mark [18] stands for this setting: second compound 1 µM, first compound 0.0316 µM.
[19] abbreviates: second compound 1 µM, first compound 0.1 µM.
[20] abbreviates: second compound 1 µM, first compound 0.316 µM.
Setting [21] is: second compound 1 µM, first compound 1 µM.
Where [22] appears, read: second compound 1 µM, first compound 3.16 µM.
The mark [23] stands for this setting: second compound 1 µM, first compound 10 µM.
The mark [24] stands for this setting: second compound 3.16 µM, first compound 0.0316 µM.
The mark [25] stands for this setting: second compound 3.16 µM, first compound 0.1 µM.
The mark [26] stands for this setting: second compound 3.16 µM, first compound 0.316 µM.
Where [27] appears, read: second compound 3.16 µM, first compound 1 µM.
[28] abbreviates: second compound 3.16 µM, first compound 3.16 µM.
Where [29] appears, read: second compound 3.16 µM, first compound 10 µM.
[30] abbreviates: second compound 10 µM, first compound 0.0316 µM.
The mark [31] stands for this setting: second compound 10 µM, first compound 0.1 µM.
Where [32] appears, read: second compound 10 µM, first compound 0.316 µM.
[33] abbreviates: second compound 10 µM, first compound 1 µM.
Where [34] appears, read: second compound 10 µM, first compound 3.16 µM.
Where [35] appears, read: second compound 10 µM, first compound 10 µM.
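Further: drug exposure lasted seven days after spheroids formed for three days.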
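Wherever viability, T/C is given: percent of DMSO vehicle control viability which is 100%.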

One may read the IC50 as the midpoint of a concentration-inhibition curve. In general, viability, T/C refers to the result in the treated group divided by that in the control group, in per cent. As for `Cn1nccc1Nc1nccc(-c2cc3c(s2)C(C)(C)N(CCN2CCOCC2)C3=O)n1` + C=CC(=O)N1CCN(c2nc(=O)n(-c3c(C)ccnc3C(C)C)c3nc(-c4c(O)cccc4F)c(F)cc23)C(C)C1, the IC50 by setting is: under setting [1], 122 nM; under setting [2], 131 nM; under setting [3], 111 nM; under setting [4], 77.7 nM; under setting [5], less than 31.6 nM. In addition, the viability, T/C under setting [6] is 95.1%; the viability, T/C under setting [7] was 55.6%; the viability, T/C under setting [8] was 23.7%; the viability, T/C under setting [9] was 12.3%; the viability, T/C under setting [10] is 11.2%; the viability, T/C under setting [11] was 11.1%. Also, the viability, T/C under setting [12] is 107%; the viability, T/C under setting [13] was 58.5%; the viability, T/C under setting [14] is 21.9%; the viability, T/C under setting [15] is 13.7%; the viability, T/C under setting [16] is 12.4%; the viability, T/C under setting [17] is 12.6%. Also, the viability, T/C reads like this: under setting [18], 115%; under setting [19], 52.7%; under setting [20], 22.5%; under setting [21], 15.2%; under setting [22], 12.5%; under setting [23], 14.4%. The viability, T/C was 76.6% under setting [24]; 42.5% under setting [25]; 19.2% under setting [26]; 14.3% under setting [27]; 13.8% under setting [28]; 17.2% under setting [29]. The viability, T/C reads like this: under setting [30], 25.2%; under setting [31], 18%; under setting [32], 14.6%; under setting [33], 14.4%; under setting [34], 15.1%; under setting [35], 19.5%.

With `CC1(C)CCC(CN2CCN(c3ccc(C(=O)NS(=O)(=O)c4ccc(NCC5CCOCC5)c([N+](=O)[O-])c4)c(Oc4cnc5[nH]ccc5c4)c3)CC2)=C(c2ccc(Cl)cc2)C1` + CNCc1ccccc1-c1csc(C(C)Nc2nc(C)nc3cc(OC)c(OC)cc23)c1, the IC50 under setting [1] turned out to be 1950 nM; the IC50 under setting [2] worked out at 2130 nM; the IC50 under setting [3] turned out to be 1380 nM; the IC50 under setting [4] was less than 31.6 nM; the concentration for half-maximal inhibition (IC50) under setting [5] is less than 31.6 nM. The viability, T/C was 94.3% under setting [6]; 93.4% under setting [7]; 102% under setting [8]; 88.4% under setting [9]; 22% under setting [10]; 8.05% under setting [11]. Moreover, the viability, T/C under setting [12] was 87.7%; the viability, T/C under setting [13] is 86.9%; the viability, T/C under setting [14] was 94.4%; the viability, T/C under setting [15] is 86.6%; the viability, T/C under setting [16] was 30.8%; the viability, T/C under setting [17] was 6.47%. The viability, T/C runs as follows: under setting [18], 60.5%; under setting [19], 62.5%; under setting [20], 68.2%; under setting [21], 66.6%; under setting [22], 13%; under setting [23], 5.94%. Further, the viability, T/C under setting [24] was 0.12%; the viability, T/C under setting [25] is 1.9%; the viability, T/C under setting [26] is 0.25%; the viability, T/C under setting [27] was 0.79%; the viability, T/C under setting [28] is 0.4%; the viability, T/C under setting [29] is 0.64%. Further, the viability, T/C by setting is: under setting [30], 0.08%; under setting [31], 0.08%; under setting [32], 0.23%; under setting [33], 0.08%; under setting [34], 0.09%; under setting [35], 0.28%.

With `COc1cc2nc(C)nc(NC(C)c3cc(N)cc(C(F)(F)F)c3)c2cc1OC1CCOC1` (centres undefined), the IC50 (compound alone, run of 09/02/2021) is 4.36 µM [middle of 5 runs].

As to `O=C(c1cc(Cc2n[nH]c(=O)c3ccccc23)ccc1F)N1CCN(C(=O)C2CC2)CC1`, the viability, T/C is, setting by setting: (compound 0.0316 µM) 96.3% [middle of 5 runs]; (compound 10 µM) 46% [middle of 5 runs]. In addition, the IC50 (curve of compound) was 8.55 µM [middle of 5 runs].
